From ChEMBL document CHEMBL1201862, “PubChem BioAssay data set” (2004)
The source made the active and inactive calls.

How the values were obtained:
Format in all cases: functional
[1] = target: T1, Replicative DNA helicase DnaB (Mycobacterium tuberculosis, UniProt P9WMR3); experiment: DnaB intein splicing inhibitors, dose response, biochemical, cell-free fluorescence (AID 449749)
T1 sequence (P9WMR3 whole entry): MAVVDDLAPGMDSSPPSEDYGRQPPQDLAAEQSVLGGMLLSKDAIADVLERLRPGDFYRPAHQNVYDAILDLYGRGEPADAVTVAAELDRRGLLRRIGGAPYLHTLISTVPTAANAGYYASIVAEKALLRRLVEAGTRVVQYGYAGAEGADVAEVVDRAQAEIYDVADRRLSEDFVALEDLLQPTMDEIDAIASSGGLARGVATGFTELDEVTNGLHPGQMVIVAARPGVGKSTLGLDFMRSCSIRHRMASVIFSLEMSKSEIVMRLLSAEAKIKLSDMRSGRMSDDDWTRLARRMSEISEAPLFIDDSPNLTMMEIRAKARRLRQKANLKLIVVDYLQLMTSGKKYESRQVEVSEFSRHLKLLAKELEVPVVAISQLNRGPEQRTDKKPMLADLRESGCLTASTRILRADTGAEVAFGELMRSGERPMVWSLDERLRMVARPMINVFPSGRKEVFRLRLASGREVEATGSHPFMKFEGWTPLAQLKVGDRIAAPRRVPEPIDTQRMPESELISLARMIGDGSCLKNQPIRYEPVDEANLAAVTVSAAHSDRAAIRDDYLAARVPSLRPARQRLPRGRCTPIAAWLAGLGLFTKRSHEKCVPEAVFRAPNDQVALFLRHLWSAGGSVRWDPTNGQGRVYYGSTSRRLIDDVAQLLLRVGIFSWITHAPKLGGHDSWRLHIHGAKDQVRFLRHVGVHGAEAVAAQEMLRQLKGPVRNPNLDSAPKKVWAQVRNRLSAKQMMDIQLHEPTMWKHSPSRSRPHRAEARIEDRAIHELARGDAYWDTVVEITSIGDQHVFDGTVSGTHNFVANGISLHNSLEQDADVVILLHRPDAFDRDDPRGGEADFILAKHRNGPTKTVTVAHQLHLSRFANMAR

[2] = target: T2, Apoptotic protease-activating factor 1 (Homo sapiens, UniProt O14727)
T2 sequence (O14727 whole entry): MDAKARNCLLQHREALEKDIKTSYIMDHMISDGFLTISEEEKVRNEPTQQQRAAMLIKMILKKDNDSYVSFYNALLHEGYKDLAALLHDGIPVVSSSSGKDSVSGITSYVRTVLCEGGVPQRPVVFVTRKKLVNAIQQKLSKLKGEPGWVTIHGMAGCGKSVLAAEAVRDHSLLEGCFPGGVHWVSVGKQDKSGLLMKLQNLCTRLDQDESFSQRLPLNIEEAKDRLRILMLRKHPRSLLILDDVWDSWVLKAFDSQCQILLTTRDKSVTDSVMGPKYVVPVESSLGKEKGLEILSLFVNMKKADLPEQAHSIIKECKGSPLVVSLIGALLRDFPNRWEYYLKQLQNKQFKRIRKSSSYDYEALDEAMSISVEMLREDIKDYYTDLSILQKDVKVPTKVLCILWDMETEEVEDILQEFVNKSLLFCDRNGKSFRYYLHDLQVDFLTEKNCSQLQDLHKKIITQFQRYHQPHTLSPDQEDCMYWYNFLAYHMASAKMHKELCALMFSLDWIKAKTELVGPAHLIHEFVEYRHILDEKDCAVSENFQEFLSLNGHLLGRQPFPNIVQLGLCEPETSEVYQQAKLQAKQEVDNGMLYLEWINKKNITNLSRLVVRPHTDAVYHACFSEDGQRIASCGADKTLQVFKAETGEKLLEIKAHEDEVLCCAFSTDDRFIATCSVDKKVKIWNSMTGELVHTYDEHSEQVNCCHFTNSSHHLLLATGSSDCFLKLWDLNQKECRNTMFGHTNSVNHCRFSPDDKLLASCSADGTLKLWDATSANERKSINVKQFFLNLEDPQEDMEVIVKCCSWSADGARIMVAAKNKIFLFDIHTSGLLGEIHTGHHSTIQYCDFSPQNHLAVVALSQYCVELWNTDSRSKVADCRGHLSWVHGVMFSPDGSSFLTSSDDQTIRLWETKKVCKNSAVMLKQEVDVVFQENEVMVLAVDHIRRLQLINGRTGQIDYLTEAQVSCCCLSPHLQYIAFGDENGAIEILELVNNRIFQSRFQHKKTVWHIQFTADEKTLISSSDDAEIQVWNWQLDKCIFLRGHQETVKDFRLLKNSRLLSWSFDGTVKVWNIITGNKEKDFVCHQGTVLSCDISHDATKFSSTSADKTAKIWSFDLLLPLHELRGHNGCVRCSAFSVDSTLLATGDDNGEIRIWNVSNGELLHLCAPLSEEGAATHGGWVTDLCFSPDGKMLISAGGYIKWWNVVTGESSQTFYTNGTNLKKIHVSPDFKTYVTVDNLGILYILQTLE

Protein RecA = target: T3, Protein RecA (Mycobacterium tuberculosis, UniProt P9WHJ3); experiment: Fluorescence Cell-Free Homogeneous Dose Retest to Identify Inhibitors of RecA-Intein Splicing Activity. [Related pubchem assays (depositor defined):AID2097, AID2223, AID489010, AID492950]
T3 sequence (P9WHJ3 whole entry): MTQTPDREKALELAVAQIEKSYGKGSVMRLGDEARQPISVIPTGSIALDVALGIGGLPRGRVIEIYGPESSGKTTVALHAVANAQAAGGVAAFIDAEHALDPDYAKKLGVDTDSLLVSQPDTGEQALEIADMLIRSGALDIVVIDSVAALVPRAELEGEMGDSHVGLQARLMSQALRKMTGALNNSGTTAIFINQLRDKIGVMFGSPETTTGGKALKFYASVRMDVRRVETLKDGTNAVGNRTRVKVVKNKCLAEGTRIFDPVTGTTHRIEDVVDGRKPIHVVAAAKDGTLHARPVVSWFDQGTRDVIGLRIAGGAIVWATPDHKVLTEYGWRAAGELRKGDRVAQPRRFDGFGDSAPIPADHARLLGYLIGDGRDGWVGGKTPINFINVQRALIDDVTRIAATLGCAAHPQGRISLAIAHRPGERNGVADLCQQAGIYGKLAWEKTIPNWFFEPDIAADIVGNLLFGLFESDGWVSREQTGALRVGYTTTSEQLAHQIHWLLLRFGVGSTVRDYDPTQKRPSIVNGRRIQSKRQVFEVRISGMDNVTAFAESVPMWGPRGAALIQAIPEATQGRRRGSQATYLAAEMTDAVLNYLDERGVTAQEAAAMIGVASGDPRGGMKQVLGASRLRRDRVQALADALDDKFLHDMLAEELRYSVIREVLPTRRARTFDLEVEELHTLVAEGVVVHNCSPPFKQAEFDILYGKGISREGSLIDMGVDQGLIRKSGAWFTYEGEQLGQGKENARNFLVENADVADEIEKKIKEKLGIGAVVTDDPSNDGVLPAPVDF

Genome polyprotein = Genome polyprotein (dengue virus type 2, UniProt P29990); experiment: Dengue-2 NS5 methyltransferase inhibitors, primary screen, biochemical, confirmation dose response (AID 588689)
Genome polyprotein, sequence (P29990 2492-3391 limits assumed): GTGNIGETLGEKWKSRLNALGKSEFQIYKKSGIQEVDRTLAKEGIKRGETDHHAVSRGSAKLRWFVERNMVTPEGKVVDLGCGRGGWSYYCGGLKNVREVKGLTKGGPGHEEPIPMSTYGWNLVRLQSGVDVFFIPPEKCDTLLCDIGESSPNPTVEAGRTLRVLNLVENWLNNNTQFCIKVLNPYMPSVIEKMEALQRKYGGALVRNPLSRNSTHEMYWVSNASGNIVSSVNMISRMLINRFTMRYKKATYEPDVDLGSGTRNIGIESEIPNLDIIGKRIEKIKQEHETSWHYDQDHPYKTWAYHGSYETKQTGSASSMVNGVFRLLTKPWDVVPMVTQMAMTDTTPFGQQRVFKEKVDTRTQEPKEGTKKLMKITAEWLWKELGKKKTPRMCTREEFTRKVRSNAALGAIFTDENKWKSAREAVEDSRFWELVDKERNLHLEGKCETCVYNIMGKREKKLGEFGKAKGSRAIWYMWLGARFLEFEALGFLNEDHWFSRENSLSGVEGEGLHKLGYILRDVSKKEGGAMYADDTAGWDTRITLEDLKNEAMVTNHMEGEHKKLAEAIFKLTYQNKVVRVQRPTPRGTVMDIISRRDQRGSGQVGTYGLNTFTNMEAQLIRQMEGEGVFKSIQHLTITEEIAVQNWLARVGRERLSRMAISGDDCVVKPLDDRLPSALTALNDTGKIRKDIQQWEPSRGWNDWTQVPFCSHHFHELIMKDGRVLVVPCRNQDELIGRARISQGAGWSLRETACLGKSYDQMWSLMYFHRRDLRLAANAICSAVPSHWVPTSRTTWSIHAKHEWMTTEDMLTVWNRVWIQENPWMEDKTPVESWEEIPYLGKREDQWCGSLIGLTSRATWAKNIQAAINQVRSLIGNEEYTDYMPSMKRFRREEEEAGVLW

With `COC(=O)c1ccc(-c2ccc(C(c3c(C)[nH][nH]c3=O)c3c(C)[nH][nH]c3=O)o2)cc1` the AC50 [1] was 0.595 µM (inconclusive), the IC50 [2] was 23.9 µM (active) and the EC50 (Protein RecA) was 0.348 µM (active). For the same molecule, the IC50 (Genome polyprotein) was > 100 µM (active).
In the case of `Oc1ccc(/C=N/NC(=S)Nc2cccnc2)c(O)c1O`, the IC50 (Genome polyprotein) is reported as 24.4 µM (active).
